EPA's ToxValDB 9.5 (doi:10.2903/j.efsa.2020.5755)

How the values were obtained:
Typhlodromus pyri = assay: LR50; higher = less toxic; settings: mortality
Apis mellifera = settings: acute, mortality
Rattus norvegicus = settings: for LD50: acute, mortality
Oncorhynchus mykiss = settings: acute; duration: 96 hours; mortality
Tagia sp. = settings: chronic/long-term; growth
Anas platyrhynchos = settings: reproductive
Pimephales promelas = settings: chronic/long-term; reproduction
Neomysis kadiakensis = settings: chronic/long-term; duration: 39 days; other
Coturnix japonica = settings: acute; oral; mortality
Landoltia sp. = settings: chronic/long-term; duration: 7 days; frond number
Xenopus laevis = settings: chronic/long-term, development
Daphnia magna = settings: chronic/long-term; duration: 28 days; reproduction
Canidae = settings: chronic; duration: 1 years; Dog Other
Colinus virginianus = settings: reproduction developmental
Folsomia candida = settings: chronic/long-term; duration: 28 days; reproduction

S=C([S-])NCCNC(=S)[S-].S=C([S-])NCCNC(=S)[S-].[Mn+2].[Zn+2] [Mancozeb]
LR50 (Typhlodromus pyri; chronic/long-term, duration: 14 days): 107 g/ha | LR50 (Typhlodromus pyri; not reported): 26.7 g/ha | LD50 (Apis mellifera; dermal): 162 µg/piece | LD50 (Apis mellifera; oral, unspecified): 141 µg/piece | LD50 (Rattus norvegicus; oral): > 2000 mg/kg-day | NOAEL (Rattus norvegicus; chronic): 2 mg/kg-day | NOAEL (Rattus norvegicus; subchronic, duration: 90 days, oral, clinical chemistry): 6.8 mg/kg-day | LC50 (Oncorhynchus mykiss): 0.074 µg/mL | NOEC (Tagia sp.): 10 mg/kg | NOEL (Anas platyrhynchos): 18.6 mg/kg-day | NOEC (Pimephales promelas): 1.35 µg/L | NOEC (Neomysis kadiakensis): 1.64 µg/L | LD50 (Coturnix japonica): > 2000 mg/kg-day

S=C1NCCN1 [4,5-Dihydro-2-mercaptoimidazole]
NOEC (Landoltia sp.): 960000 µg/L | NOEC (Xenopus laevis; duration: 28 days): 10000 µg/L | NOEC (Xenopus laevis; duration: 90 days): 1000 µg/L | NOEC (Daphnia magna): 2000 µg/L | NOAEL (Rattus norvegicus; chronic): 2 mg/kg-day | NOAEL (Rattus norvegicus; developmental, development): 5 mg/kg-day | NOAEL (Rattus norvegicus; reproduction developmental): 0.2 mg/kg-day | NOAEL (Canidae): 0.2 mg/kg-day | NOEL (Colinus virginianus): 1.8 mg/kg-day | NOEC (Tagia sp.): 24 mg/kg | NOEC (Folsomia candida): 10.6 mg/kg

O=C1NCCN1 [Ethylene urea]
LD50 (Rattus norvegicus; oral): > 5000 mg/kg-day | NOAEL (Rattus norvegicus; reproduction developmental, oral, reproduction): 37 mg/kg-day | LC50 (Oncorhynchus mykiss): > 122 µg/mL

S=C1SSC2=NCCN12 [5,6-Dihydro-3H-imidazo[2,1-c]-1,2,4-dithiazole-3-thione]
LD50 (Rattus norvegicus; oral): 240 mg/kg-day | NOEC (Tagia sp.): 20 mg/kg
